Patent publication US10774094B2, “Crystal forms and salt forms of 7h-pyrrolo[2,3-d]pyrimidine compounds and preparation method thereof” (Wuxi Fortune Pharmaceutical Co., Ltd, priority 2016, dated 2020)

What was measured:
Recombinant human JAK2 = biological target: T1, Recombinant human JAK2 (Homo sapiens, UniProt O60674); experiment: In-vitro activity test of JAK2 kinase (LANCE Ultra); type: biochemical
T1 construct: purchased Life technology
Method: (§1) Recombinant human JAK1, JAK2, and JAK3 […] were purchased from Life technology. LANCE Ultra ULight™-JAK-1 (Tyr1023) peptide and LANCE Eu-W1024 Anti-phosphotyrosine (PT66) both were purchased from PerkinElmer. The plates were read using a multiplex enzyme reader Envision (PerkinElmer).
(§2) The test compounds were subjected to 3-fold concentration gradient dilution to afford 11 final concentrations ranging from 10 uM to 0.17 nM; two wells were formed for each concentration; and the content of DMSO in the detection reaction was 1%.
0.02 nM of JAK2 protein kinase, 50 nM of LANCE Ultra ULight™-JAK-1 (Tyr1023) peptide, 12 uM of ATP, 50 mM of HEPES (pH 7.5), 10 mM of MgCl2, 1 mM of EGTA, 2 mM of DTT, and 0.01% of BRIJ-35 were included. The assay plate was a White Proxiplate 384-Plus plate (PerkinElmer). The reaction was performed at room temperature for 60 minutes; and the reaction system was 10 ul.
(§3) 10 ul of the detection reagent was added to a reaction plate, wherein the final concentration of LANCE Eu-W1024 Anti-phosphotyrosine (PT66) was 2 nM, and the final concentration of EDTA was 10 mM. The reagents were incubated for 60 minutes at room temperature; and the plate was read with Envision instrument.
The reading was converted to an inhibition rate by the following formula: (%)=(Min−Ratio)/(Max−Min)*100%. IC50 data were measured by 4-parameter curve fitting (Model 205 in XLFIT5, iDBS). […]

Recombinant human JAK1 = biological target: T2, Recombinant human JAK1 (Homo sapiens, UniProt P23458); experiment: In-vitro activity test of JAK1 kinase (LANCE Ultra); type: biochemical
T2 construct: purchased Life technology
T2 sequence (P23458 whole entry): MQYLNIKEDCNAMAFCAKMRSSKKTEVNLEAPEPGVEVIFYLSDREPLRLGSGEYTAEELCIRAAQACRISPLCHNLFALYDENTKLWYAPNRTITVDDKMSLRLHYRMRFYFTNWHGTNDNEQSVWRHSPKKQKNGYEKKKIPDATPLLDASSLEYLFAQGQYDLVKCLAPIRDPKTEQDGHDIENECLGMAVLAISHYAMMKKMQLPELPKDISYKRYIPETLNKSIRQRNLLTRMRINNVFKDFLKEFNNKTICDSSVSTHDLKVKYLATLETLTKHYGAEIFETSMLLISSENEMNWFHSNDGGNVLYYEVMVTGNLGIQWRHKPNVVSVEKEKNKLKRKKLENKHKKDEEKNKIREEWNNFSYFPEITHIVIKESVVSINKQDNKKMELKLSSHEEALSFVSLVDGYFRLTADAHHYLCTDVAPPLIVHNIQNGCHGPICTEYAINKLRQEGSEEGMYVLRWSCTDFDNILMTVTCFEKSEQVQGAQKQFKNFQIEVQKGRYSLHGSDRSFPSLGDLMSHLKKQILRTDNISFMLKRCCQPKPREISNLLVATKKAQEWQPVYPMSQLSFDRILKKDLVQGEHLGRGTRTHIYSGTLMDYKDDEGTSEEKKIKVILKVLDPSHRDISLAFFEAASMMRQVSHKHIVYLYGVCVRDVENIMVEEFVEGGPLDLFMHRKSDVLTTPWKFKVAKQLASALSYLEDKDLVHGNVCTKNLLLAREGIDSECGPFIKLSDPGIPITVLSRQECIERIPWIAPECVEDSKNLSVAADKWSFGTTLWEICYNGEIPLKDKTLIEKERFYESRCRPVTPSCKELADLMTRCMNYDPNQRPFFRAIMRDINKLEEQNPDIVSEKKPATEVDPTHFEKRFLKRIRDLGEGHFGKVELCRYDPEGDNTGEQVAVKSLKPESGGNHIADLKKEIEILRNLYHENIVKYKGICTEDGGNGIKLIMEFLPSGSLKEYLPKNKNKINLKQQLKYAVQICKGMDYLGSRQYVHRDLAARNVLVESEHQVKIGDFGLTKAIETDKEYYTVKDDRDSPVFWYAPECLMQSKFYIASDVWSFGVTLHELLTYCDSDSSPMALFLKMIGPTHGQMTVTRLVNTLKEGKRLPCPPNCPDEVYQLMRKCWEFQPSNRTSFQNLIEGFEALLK
Method: as §1, §2
2 nM of JAK1 protein kinase, 50 nM of LANCE Ultra ULight™-JAK-1 (Tyr1023) peptide, 38 uM of ATP, 50 mM of HEPES (pH 7.5), 10 mM of MgCl2, 1 mM of EGTA, 2 mM of DTT, and 0.01% of BRIJ-35 were included. The assay plate was a White Proxiplate 384-Plus plate (PerkinElmer). The reaction was performed at room temperature for 90 minutes; and the reaction system was 10 ul.
as §3
The reading was converted to an inhibition rate by the following formula: […]. IC50 data were measured by 4-parameter curve fitting (Model 205 in XLFIT5, iDBS). Seen Table 9 for details.

T1 sequence (O60674 whole entry): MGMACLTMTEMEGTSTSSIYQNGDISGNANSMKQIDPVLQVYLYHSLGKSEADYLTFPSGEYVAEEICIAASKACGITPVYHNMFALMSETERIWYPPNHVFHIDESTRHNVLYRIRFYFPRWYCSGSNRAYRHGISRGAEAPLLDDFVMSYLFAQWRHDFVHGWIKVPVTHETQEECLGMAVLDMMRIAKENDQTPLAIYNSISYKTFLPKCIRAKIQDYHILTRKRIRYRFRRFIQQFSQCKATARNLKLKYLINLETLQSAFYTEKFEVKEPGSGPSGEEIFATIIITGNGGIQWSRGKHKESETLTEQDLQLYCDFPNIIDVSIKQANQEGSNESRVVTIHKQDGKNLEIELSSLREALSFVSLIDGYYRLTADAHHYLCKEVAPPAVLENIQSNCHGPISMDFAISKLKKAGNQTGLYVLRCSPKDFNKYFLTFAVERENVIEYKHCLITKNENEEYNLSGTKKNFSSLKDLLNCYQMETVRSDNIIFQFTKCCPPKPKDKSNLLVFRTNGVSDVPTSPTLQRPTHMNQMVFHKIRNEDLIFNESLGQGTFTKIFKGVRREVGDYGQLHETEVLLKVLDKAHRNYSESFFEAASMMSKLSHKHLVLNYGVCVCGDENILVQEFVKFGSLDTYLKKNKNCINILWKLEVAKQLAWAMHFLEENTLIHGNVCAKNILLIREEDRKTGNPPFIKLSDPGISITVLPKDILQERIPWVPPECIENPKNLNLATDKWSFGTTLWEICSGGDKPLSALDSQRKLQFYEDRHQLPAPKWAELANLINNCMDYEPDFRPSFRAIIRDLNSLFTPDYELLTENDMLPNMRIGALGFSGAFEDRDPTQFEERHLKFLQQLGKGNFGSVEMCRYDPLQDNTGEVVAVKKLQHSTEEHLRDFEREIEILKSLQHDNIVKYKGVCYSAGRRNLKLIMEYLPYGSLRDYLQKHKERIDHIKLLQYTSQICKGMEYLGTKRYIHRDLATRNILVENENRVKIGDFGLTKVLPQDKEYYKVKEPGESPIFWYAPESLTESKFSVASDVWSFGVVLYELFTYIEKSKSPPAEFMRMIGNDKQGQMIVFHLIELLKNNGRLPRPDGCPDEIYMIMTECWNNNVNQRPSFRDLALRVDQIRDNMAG

What does the source list for `CN(c1ncnc2[nH]ccc12)[C@@H]1CCn2cc(C#N)nc2C1` (single isomer, unassigned) [Compound 1, 7-[methyl-[7-hydropyrrolo[2,3-d]pyrimidin-4-yl]amino]-5,6,7,8-tetrahydroimidazo[1,2-a]pyridin-2-nitrile]?
inhibitory activity against JAK2 (in words) (Recombinant human JAK2): relatively weak inhibitory activity; IC50 (Recombinant human JAK2; 12 uM ATP, 60 minutes, room temperature): 10 to 100 nM; inhibitory activity against JAK1 (in words) (Recombinant human JAK1): strong inhibitory activity; selective inhibition (JAK1 versus JAK2, in words) (Recombinant human JAK1): better selective inhibition for JAK; IC50 (Recombinant human JAK1; 38 uM ATP, 90 minutes, room temperature): ≤ 10 nM
